These are literature values, as cited in patent publication US12221461B2, “Saponin adjuvant and evaluation method thereof” (OBI PHARMA, INC., priority 2018, dated 2025).

The series has as its system antibody levels. The settings on record: previous study, Kensil et al., J. Immunol. 146, 431-437, 1991.

Regarding QS-18, the “boost of antibody levels (adjuvant effect)” value (“boost of antibody levels” below) is “able to dramatically boost antibody levels”.
For the substance QS-17, the “boost of antibody levels” value is on record as “able to dramatically boost antibody levels”.
For QS-21, the “boost of antibody levels” value is reported as “able to dramatically boost antibody levels”.
